For series [1] the following is noted: for Saturation concentration: 48 h. The method, then:
The concentrations of the pramipexole salts in different media for saturation at 48 h were determined by a shake flask dissolution method at 37° C.

The nature of series [2]: Pharmacokinetics of different pramipexole salt suspension injections in rats. The format is in vivo. Conditions: subcutaneous suspension injection. The procedure: 18 adult rats, including 12 males and 6 females (non-perilactation period), were selected and divided into three groups with 6 rats each group (a ratio of males to females of 2:1), and subcutaneously administered with 2 ml of the suspension injections of Examples 3-5 respectively. The main pharmacokinetic parameters of each of test animals were determined: the time to peak, the maximal blood drug level and AUC0-t.

A further series concerns the target dopamine D2 receptor (Homo sapiens, UniProt P14416). The note with it: cited from earlier work.
The mark [3] stands for this setting: Phosphate buffer at pH 6.8, 37° C.
The mark [4] stands for this setting: Phosphate buffer at pH 7.4, 37° C.

Where a name gives a salt, the structure may show the parent alone. Read-outs that look alike come from different tables or passages of the source.

Sequence of dopamine D2 receptor (P14416 whole entry, species assumed): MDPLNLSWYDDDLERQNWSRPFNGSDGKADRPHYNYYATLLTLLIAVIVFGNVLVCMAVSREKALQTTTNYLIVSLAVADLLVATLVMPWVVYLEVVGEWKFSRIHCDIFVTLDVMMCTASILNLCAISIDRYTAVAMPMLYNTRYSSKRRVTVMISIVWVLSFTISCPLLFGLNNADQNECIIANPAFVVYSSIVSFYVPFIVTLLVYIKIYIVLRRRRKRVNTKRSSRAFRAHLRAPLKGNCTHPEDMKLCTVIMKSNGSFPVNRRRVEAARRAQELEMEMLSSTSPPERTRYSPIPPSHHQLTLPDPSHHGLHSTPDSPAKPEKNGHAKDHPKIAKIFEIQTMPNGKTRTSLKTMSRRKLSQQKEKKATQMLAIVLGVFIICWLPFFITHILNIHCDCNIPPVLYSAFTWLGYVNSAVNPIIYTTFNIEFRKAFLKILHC

On to pramipexole pamoate, for which the Saturation concentration in series [1] (0.9% NaCl, 37° C.) stood at 227.63 µg/mL; in series [1] (setting [3]), 275.34 µg/mL; in series [1] (setting [4]) it was 345.29 µg/mL; in series [1] (Water for injection, 37° C.), 189.25 µg/mL.

Consider `CCCN[C@H]1CCc2nc(N)sc2C1` [pramipexole xinafoate], for which the Saturation concentration is 1.05 µg/mL in series [1] (0.9% NaCl, 37° C.); 2.64 µg/mL in series [1] (setting [3]); 4.66 µg/mL in series [1] (setting [4]); 0.78 µg/mL in series [1] (Water for injection, 37° C.). The “Solubility compared with the other salts” value in series [1] (summary of Table 1) is given as “significantly decreased”. Besides, the “Duration of sustained release” value in series [2] is reported as “up to 35 days”.

Take `CCCN[C@H]1CCc2nc(N)sc2C1` [S(−) isomer, (S)-(−)-2-amino-6-(propylamino)-4,5,6,7-tetrahydrobenzothiazole]: the “Affinity to dopamine D2 receptor relative to the R(+) isomer” value at dopamine D2 receptor (ratio versus R(+) isomer) was 8-10 times. For the same compound, the “Affinity to dopamine D2 receptor relative to the racemate” value on dopamine D2 receptor (ratio versus racemate) is recorded as 2 times.

`CCCN[C@H]1CCc2nc(N)sc2C1.O=C(O)c1ccccc1` [pramipexole benzoate]: the Saturation concentration in series [1] (0.9% NaCl, 37° C.) was determined as 325.91 µg/mL; in series [1] (setting [3]), 392.11 µg/mL; in series [1] (setting [4]), 427.37 µg/mL; in series [1] (Water for injection, 37° C.), 292.72 µg/mL.

Take `CCCN[C@H]1CCc2nc(N)sc2C1` [pramipexole hydrochloride, Pramipexole hydrochloride]: the Saturation concentration was 1207.41 µg/mL in series [1] (0.9% NaCl, 37° C., hydrochloride); 1249.45 µg/mL in series [1] (Phosphate buffer at pH 6.8, 37° C., hydrochloride); 1363.53 µg/mL in series [1] (Phosphate buffer at pH 7.4, 37° C., hydrochloride); 1187.36 µg/mL in series [1] (Water for injection, 37° C., hydrochloride).

The values above are taken from patent publication US20260022103A1, “PRAMIPEXOLE XINAFOATE AND SUSTAINED-RELEASE PHARMACEUTICAL FORMULATION THEREOF” (JEWIM PHARMACEUTICAL (SHANDONG) CO., LTD., priority 2022, published 2026).
